Test results reported in ChEMBL document CHEMBL4699440, “Comprehensive review on the anti-bacterial activity of 1,2,3-triazole hybrids” (Eur J Med Chem, 2019).
Converted amounts (≈) assume the structure as drawn.

How the values were obtained:
Escherichia coli [1] = experiment: Antibacterial activity against Escherichia coli JM109 after overnight incubation by CLSI M7-A9 based method; format: functional
Escherichia coli [2] = experiment: Antibacterial activity against Escherichia coli ATCC 25922 after overnight incubation by CLSI M7-A9 based method; format: functional
Enterococcus faecalis [3] = experiment: Antibacterial activity against Enterococcus faecalis ATCC 29212 after overnight incubation by CLSI M7-A9 based method; format: functional
Staphylococcus aureus [4] = experiment: Antibacterial activity against Staphylococcus aureus CIP 6525 after overnight incubation by CLSI M7-A9 based method; format: functional
Streptococcus pneumoniae = experiment: Antibacterial activity against Streptococcus pneumoniae RCMB 010010 by broth dilution method; format: functional
Bacillus subtilis = experiment: Antibacterial activity against Bacillus subtilis RCMB 010067 by broth dilution method; format: functional
Staphylococcus aureus [5] = experiment: Antibacterial activity against Staphylococcus aureus RCMB 010025 by broth dilution method; format: functional
Pseudomonas aeruginosa [6] = experiment: Antibacterial activity against Pseudomonas aeruginosa RCMB 010043 by broth dilution method; format: functional
Escherichia coli [7] = experiment: Antibacterial activity against Escherichia coli RCMB 010052 by broth dilution method; format: functional
Klebsiella pneumoniae [8] = experiment: Antibacterial activity against Klebsiella pneumonia RCMB 010058 by broth dilution method; format: functional
Pseudomonas aeruginosa [9] = experiment: Antibacterial activity against Pseudomonas aeruginosa 12 incubated for 20 hrs by agar dilution method; format: functional
Escherichia coli [10] = experiment: Antibacterial activity against Escherichia coli NIHJ JC2 incubated for 20 hrs by agar dilution method; format: functional
Staphylococcus aureus [11] = experiment: Antibacterial activity against Staphylococcus aureus 209P JC1 incubated for 20 hrs by agar dilution method; format: functional
Bacillus cereus = experiment: Antibacterial activity against Bacillus cereus ATCC 10876 incubated for 24 hrs by microdilution method; format: functional
Enterococcus faecalis [12] = experiment: Antibacterial activity against Enterococcus faecalis ATCC 29212 incubated for 24 hrs by microdilution method; format: functional
Staphylococcus aureus [13] = experiment: Antibacterial activity against Staphylococcus aureus ATCC 25923 incubated for 24 hrs by microdilution method; format: functional
Proteus mirabilis = experiment: Antibacterial activity against Proteus mirabilis ATCC 35659 incubated for 24 hrs by microdilution method; format: functional
Escherichia coli [14] = experiment: Antibacterial activity against Escherichia coli ATCC 25922 incubated for 24 hrs by microdilution method; format: functional
Pseudomonas aeruginosa [15] = experiment: Antibacterial activity against Pseudomonas aeruginosa ATCC 27853 incubated for 24 hrs by microdilution method; format: functional
Candida albicans = experiment: Antifungal activity against Candida albicans ATCC 50193 incubated for 24 hrs by microdilution method; format: functional
Aspergillus brasiliensis = experiment: Antifungal activity against Aspergillus brasiliensis ATCC 16404 incubated for 24 hrs by microdilution method; format: functional
Salmonella enterica = experiment: Antibacterial activity against Salmonella enterica MTCC 3224 incubated overnight by broth dilution technique; format: functional, organism-based
Pseudomonas aeruginosa [16] = experiment: Antibacterial activity against Pseudomonas aeruginosa MTCC 2453 incubated overnight by broth dilution technique; format: functional, organism-based
Enterococcus faecalis [17] = experiment: Antibacterial activity against Enterococcus faecalis MTCC 439 incubated overnight by broth dilution technique; format: functional, organism-based
Klebsiella pneumoniae [18] = experiment: Antibacterial activity against Klebsiella pneumoniae ATCC 700603 incubated overnight by broth dilution technique; format: functional, organism-based
Escherichia coli [19] = experiment: Antibacterial activity against Escherichia coli ATCC 25922 incubated overnight by broth dilution technique; format: functional, organism-based

For C[C@H](c1ccccc1)N(CC(N)=O)C(=O)CN(C(=O)CN(Cc1cn(CCN)n[n+]1C)C(=O)CN(C(=O)CN(C(=O)CN(Cc1cn(CCN)n[n+]1C)C(=O)CN(C(=O)CN(C(=O)CN(Cc1cn(CCN)n[n+]1C)C(=O)CN(C(=O)CN(C(=O)CNCc1cn(CCN)n[n+]1C)[C@H](C)c1ccccc1)[C@H](C)c1ccccc1)[C@H](C)c1ccccc1)[C@H](C)c1ccccc1)[C@H](C)c1ccccc1)[C@H](C)c1ccccc1)[C@H](C)c1ccccc1, the MIC (Escherichia coli [1]) was > 1.6 µg/mL, the MIC (Escherichia coli [2]) was > 1.6 µg/mL and the MIC (Enterococcus faecalis [3]) was > 1.6 µg/mL. For the same molecule, the MIC (Staphylococcus aureus [4]) was > 1.6 µg/mL.
For OCC(O)CSc1nnc(-c2nnn(-c3ccccc3Cl)c2-c2nnc(SCC(O)CO)o2)o1 (stereo not drawn), the MIC (Streptococcus pneumoniae) was 4 µg/mL (≈ 7.58 µM), the MIC (Bacillus subtilis) was 4 µg/mL (≈ 7.58 µM) and the MIC (Staphylococcus aureus [5]) was 4 µg/mL (≈ 7.58 µM). The MIC (Pseudomonas aeruginosa [6]) was 4 µg/mL (≈ 7.58 µM), the MIC (Escherichia coli [7]) was 4 µg/mL (≈ 7.58 µM) and the MIC (Klebsiella pneumoniae [8]) was 4 µg/mL (≈ 7.58 µM).
O=C(O)c1cn(C2CC2)c2c(F)c(N3CCCCC3)c3nn[nH]c3c2c1=O showed an MIC (Pseudomonas aeruginosa [9]) of 0.05 µg/mL (≈ 0.135 µM), an MIC (Escherichia coli [10]) of 0.05 µg/mL (≈ 0.135 µM) and an MIC (Staphylococcus aureus [11]) of 0.05 µg/mL (≈ 0.135 µM).
For NCC1CCN(c2c(F)c3c(c(=O)c(C(=O)O)cn3C3CC3)c3[nH]nnc23)C1 (stereo not drawn), the MIC (Pseudomonas aeruginosa [9]) was 0.05 µg/mL (≈ 0.129 µM), the MIC (Escherichia coli [10]) was 0.05 µg/mL (≈ 0.129 µM) and the MIC (Staphylococcus aureus [11]) was 0.05 µg/mL (≈ 0.129 µM).
CCCCCCCCCCn1nnc(-c2n[nH]c(=S)n2-c2ccccc2)c1-c1n[nH]c(=S)n1-c1ccccc1 was tested, and the MIC (Bacillus cereus) was 2 µg/mL (≈ 3.57 µM), the MIC (Enterococcus faecalis [12]) was 2 µg/mL (≈ 3.57 µM) and the MIC (Staphylococcus aureus [13]) was 2 µg/mL (≈ 3.57 µM). It also gave an MIC (Proteus mirabilis) of 2 µg/mL (≈ 3.57 µM), an MIC (Escherichia coli [14]) of 2 µg/mL (≈ 3.57 µM) and an MIC (Pseudomonas aeruginosa [15]) of 2 µg/mL (≈ 3.57 µM). It also gave an MIC (Candida albicans) of 2 µg/mL (≈ 3.57 µM) and an MIC (Aspergillus brasiliensis) of 2 µg/mL (≈ 3.57 µM).
CCOCCSc1nnc(-c2nnn(-c3ccccc3Cl)c2-c2nnc(SCCOCC)o2)o1 showed an MIC (Streptococcus pneumoniae) of 31.2 µg/mL (≈ 59.6 µM), an MIC (Bacillus subtilis) of 31.2 µg/mL (≈ 59.6 µM) and an MIC (Staphylococcus aureus [5]) of 31.2 µg/mL (≈ 59.6 µM). The MIC (Pseudomonas aeruginosa [6]) was 31.2 µg/mL (≈ 59.6 µM), the MIC (Escherichia coli [7]) was 31.2 µg/mL (≈ 59.6 µM) and the MIC (Klebsiella pneumoniae [8]) was 31.2 µg/mL (≈ 59.6 µM).
CCCCCCCCCCCCCCn1nnc(-c2n[nH]c(=S)n2N)c1-c1n[nH]c(=S)n1N showed an MIC (Bacillus cereus) of 1 µg/mL (≈ 2.03 µM), an MIC (Enterococcus faecalis [12]) of 1 µg/mL (≈ 2.03 µM) and an MIC (Staphylococcus aureus [13]) of 1 µg/mL (≈ 2.03 µM). The MIC (Proteus mirabilis) was 1 µg/mL (≈ 2.03 µM), the MIC (Escherichia coli [14]) was 1 µg/mL (≈ 2.03 µM) and the MIC (Pseudomonas aeruginosa [15]) was 1 µg/mL (≈ 2.03 µM). For the same molecule, the MIC (Candida albicans) was 1 µg/mL (≈ 2.03 µM) and the MIC (Aspergillus brasiliensis) was 1 µg/mL (≈ 2.03 µM).
In the case of C[C@H](c1ccccc1)N(CC(N)=O)C(=O)CN(C(=O)CN(Cc1cn(CCN)n[n+]1C)C(=O)CN(C(=O)CN(C(=O)CN(Cc1cn(CCN)n[n+]1C)C(=O)CN(C(=O)CN(C(=O)CNCc1cn(CCN)n[n+]1C)[C@H](C)c1ccccc1)[C@H](C)c1ccccc1)[C@H](C)c1ccccc1)[C@H](C)c1ccccc1)[C@H](C)c1ccccc1, the MIC (Escherichia coli [1]) is reported as > 1.6 µg/mL, the MIC (Escherichia coli [2]) is reported as > 1.6 µg/mL and the MIC (Enterococcus faecalis [3]) is reported as > 1.6 µg/mL. The MIC (Staphylococcus aureus [4]) was > 1.6 µg/mL.
CCCCCCCCCCCCn1nnc(-c2n[nH]c(=S)n2-c2ccccc2)c1-c1n[nH]c(=S)n1-c1ccccc1 showed an MIC (Bacillus cereus) of 2 µg/mL (≈ 3.4 µM), an MIC (Enterococcus faecalis [12]) of 2 µg/mL (≈ 3.4 µM) and an MIC (Staphylococcus aureus [13]) of 2 µg/mL (≈ 3.4 µM). For the same molecule, the MIC (Proteus mirabilis) was 2 µg/mL (≈ 3.4 µM), the MIC (Escherichia coli [14]) was 2 µg/mL (≈ 3.4 µM) and the MIC (Pseudomonas aeruginosa [15]) was 2 µg/mL (≈ 3.4 µM). The MIC (Candida albicans) was 2 µg/mL (≈ 3.4 µM) and the MIC (Aspergillus brasiliensis) was 2 µg/mL (≈ 3.4 µM).
Work on COc1ccc(-n2cc(COc3cccc4cccnc34)nn2)cc1 yielded an IC50 (Salmonella enterica) of 164 µg/mL (≈ 495 µM), an IC50 (Pseudomonas aeruginosa [16]) of 164 µg/mL (≈ 495 µM) and an IC50 (Enterococcus faecalis [17]) of 164 µg/mL (≈ 495 µM). The IC50 (Klebsiella pneumoniae [18]) was 164 µg/mL (≈ 495 µM) and the IC50 (Escherichia coli [19]) was 164 µg/mL (≈ 495 µM).
For C[C@H](c1ccccc1)N(CC(N)=O)C(=O)CN(C(=O)CN(Cc1cn(Cc2ccccc2)n[n+]1C)C(=O)CN(C(=O)CN(C(=O)CN(Cc1cn(Cc2ccccc2)n[n+]1C)C(=O)CN(C(=O)CN(C(=O)CNCc1cn(Cc2ccccc2)n[n+]1C)[C@H](C)c1ccccc1)[C@H](C)c1ccccc1)[C@H](C)c1ccccc1)[C@H](C)c1ccccc1)[C@H](C)c1ccccc1, the MIC (Escherichia coli [1]) was > 1.6 µg/mL, the MIC (Escherichia coli [2]) was > 1.6 µg/mL and the MIC (Enterococcus faecalis [3]) was > 1.6 µg/mL. The MIC (Staphylococcus aureus [4]) was > 1.6 µg/mL.
NC1CCN(c2c(F)c3c(c(=O)c(C(=O)O)cn3C3CC3)c3[nH]nnc23)C1 (stereo not drawn) showed an MIC (Pseudomonas aeruginosa [9]) of 0.05 µg/mL (≈ 0.134 µM), an MIC (Escherichia coli [10]) of 0.05 µg/mL (≈ 0.134 µM) and an MIC (Staphylococcus aureus [11]) of 0.05 µg/mL (≈ 0.134 µM).
Work on OCCSc1nnc(-c2nnn(-c3ccccc3Cl)c2-c2nnc(SCCO)o2)o1 yielded an MIC (Streptococcus pneumoniae) of 4 µg/mL (≈ 8.55 µM), an MIC (Bacillus subtilis) of 4 µg/mL (≈ 8.55 µM) and an MIC (Staphylococcus aureus [5]) of 4 µg/mL (≈ 8.55 µM). It also gave an MIC (Pseudomonas aeruginosa [6]) of 4 µg/mL (≈ 8.55 µM), an MIC (Escherichia coli [7]) of 4 µg/mL (≈ 8.55 µM) and an MIC (Klebsiella pneumoniae [8]) of 4 µg/mL (≈ 8.55 µM).
CCCCCCCCn1nnc(-c2n[nH]c(=S)n2N)c1-c1n[nH]c(=S)n1N was tested, and the MIC (Bacillus cereus) was 1 µg/mL (≈ 2.44 µM), the MIC (Enterococcus faecalis [12]) was 1 µg/mL (≈ 2.44 µM) and the MIC (Staphylococcus aureus [13]) was 1 µg/mL (≈ 2.44 µM). It also gave an MIC (Proteus mirabilis) of 1 µg/mL (≈ 2.44 µM), an MIC (Escherichia coli [14]) of 1 µg/mL (≈ 2.44 µM) and an MIC (Pseudomonas aeruginosa [15]) of 1 µg/mL (≈ 2.44 µM). The MIC (Candida albicans) was 1 µg/mL (≈ 2.44 µM) and the MIC (Aspergillus brasiliensis) was 1 µg/mL (≈ 2.44 µM).
Work on CC1CCN(c2c(F)c3c(c(=O)c(C(=O)O)cn3C3CC3)c3[nH]nnc23)CC1 yielded an MIC (Pseudomonas aeruginosa [9]) of 0.05 µg/mL (≈ 0.13 µM), an MIC (Escherichia coli [10]) of 0.05 µg/mL (≈ 0.13 µM) and an MIC (Staphylococcus aureus [11]) of 0.05 µg/mL (≈ 0.13 µM).
In the case of C[C@H](c1ccccc1)N(CC(N)=O)C(=O)CN(C(=O)CN(Cc1cn(CCN)n[n+]1C)C(=O)CN(C(=O)CN(C(=O)CNCc1cn(CCN)n[n+]1C)[C@H](C)c1ccccc1)[C@H](C)c1ccccc1)[C@H](C)c1ccccc1, the MIC (Escherichia coli [1]) is reported as > 1.6 µg/mL, the MIC (Escherichia coli [2]) is reported as > 1.6 µg/mL and the MIC (Enterococcus faecalis [3]) is reported as > 1.6 µg/mL. For the same molecule, the MIC (Staphylococcus aureus [4]) was > 1.6 µg/mL.
